Results from patent US20070071699A1, “Benzylidene-1,3-thiazolidine-2,4-dione compounds for promoting and/or inducing and/or stimulating the pigmentation of keratin materials and/or for limiting their depigmentation and/or whitening” (L'OREAL, priority 2005, published 2007).

Key:
[1] = test system: tyrosinase activity of normal human epidermal melanocytes; assay: Tyrosinase activity of normal human melanocytes in culture (72 h treatment, lysate, L-Dopa substrate, absorbance 450 nm); type: cell-based; conditions: for Stimulation of the tyrosinase activity: 72 h
Procedure: a) Melanocyte Culture Conditions:
Normal human epidermal melanocytes are cultured (9th passage) in melanocyte growth medium M2 supplemented with:
Promocell C24300 supplements
Penicillin 50 IU/ml and streptomycin 50 μg/ml (Invitrogen) under standard temperature conditions (37° C.) at 5% CO2.
b) Preparation of the Solutions of the Test Compound:
The final titre of the prepared solutions is 10 mM. The final test concentrations range from 0.1 to 10 μM (PGE2) and 1 to 10 μM (15-PGDH inhibitors).
c)Principle of the Tests:
The tests performed consist in measuring the […] alone or combined with PGE2* on the overall activity of tyrosinase. *PGE2 is a pigmentation modulator that is deactivated by the enzyme 15-PGDH.
The melanocytes are cultured in 96-well plates up to confluence (culture conditions described in a) and the supernatant of each of the wells is then removed and replaced with the medium containing the compounds to be evaluated.
Thus (in triplicate), the 15-PGDH inhibitor alone at 1 μM and 10 μM or, for each of these first conditions, in the presence of 0.1 μM, 1 μM or 10 μM of PGE2.
The cultures are maintained under these various conditions for 72 h, the supernatants are then removed and the cell lawns are washed with a phosphate buffer (pH=7.2). The cells are lysed with a pH 7.2 phosphate buffer containing 1% Triton X100.
The tyrosinase activity of each of the lysates is then estimated against a fungal tyrosinase range (Sigma T7755).
The methodology implemented uses L-Dopa as reaction substrate (45 minutes at 37° C.); the formation of melanin is assessed by measuring the absorbance at 450 nm.
In this test, two references are also evaluated: kojic acid (a tyrosinase inhibitor introduced at 0.1% into the culture medium) and isobutyl methyl xanthine (IBMX), a phosphodiesterase inhibitor which, by limiting the catabolism of cAMP, contributes towards increasing the overall tyrosinase activity as assessed in this test.

type-1 15-PGDH = target: T1, type-1 15-PGDH (Homo sapiens, UniProt P15428); assay: Test on type-1 15-PGDH (spectrophotometric, NADH formation at 340 nm, PGE2 substrate); type: biochemical; conditions: 37° C., pH 7.4 Tris buffer, 1.5 mM β-NAD, 50 μM Prostaglandin E2
T1 construct: made in house
T1 sequence (P15428 1-266): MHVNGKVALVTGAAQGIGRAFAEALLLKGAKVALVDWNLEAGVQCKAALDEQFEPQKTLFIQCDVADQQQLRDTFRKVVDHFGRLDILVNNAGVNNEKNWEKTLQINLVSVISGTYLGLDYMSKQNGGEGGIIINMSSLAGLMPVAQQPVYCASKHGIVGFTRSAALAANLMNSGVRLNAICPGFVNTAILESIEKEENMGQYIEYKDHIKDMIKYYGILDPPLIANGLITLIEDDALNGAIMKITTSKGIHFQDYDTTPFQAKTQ
Procedure: For the purposes of the test, this suspension is thawed and stored in ice.
0.965 ml of this buffer (brought to 37° C. beforehand) is introduced into the cuvette of a spectrophotometer (Perkin-Elmer, Lambda 2) thermostatically maintained at 37° C., the measuring wavelength of which is set at 340 nm. 0.035 mL of enzymatic suspension at 37° C. is introduced into the cuvette concomitantly with the recording (corresponding to an increase in the optical density at 340 nm). The maximum reaction rate is recorded.

CC(C)(C)c1ccc(Oc2ccccc2/C=C2\SC(=O)N=C2[O-])cc1.[Na+] [Compound 4, (5Z)-5-[2-(4-tert-butylphenoxy)benzylidene]-1,3-thiazolidine-2,4-dione]
Stimulation of the tyrosinase activity ([1]; Compound 4 1 μM + PGE2 0.1 μM): +27% | Stimulation of the tyrosinase activity ([1]; Compound 4 1 μM + PGE2 1 μM): +40% | Stimulation of the tyrosinase activity ([1]; Compound 4 1 μM + PGE2 10 μM): +32% | Stimulation of the tyrosinase activity ([1]; Compound 4 1 μM alone): +16%

O=C1NC(=O)/C(=C\c2ccc(OCc3cccc(Cl)c3)cc2)S1 [Compound 13]
IC50 (type-1 15-PGDH): 5 µM

O=C1NC(=O)/C(=C/c2ccccc2Oc2ccc(Br)c(F)c2)S1 [Compound 14]
IC50 (type-1 15-PGDH): 1.55 µM

CCCCC[C@H](O)/C=C/[C@H]1[C@H](O)CC(=O)[C@@H]1C/C=C\CCCC(=O)O [PGE2, Prostaglandin E2, reference compound]
Stimulation of the activity of tyrosinase ([1]; PGE2 alone at 0.1 μM): +3% | Stimulation of the activity of tyrosinase ([1]; PGE2 alone at 1 μM): +9%
